Measured values as given in ChEMBL document CHEMBL1201862, “PubChem BioAssay data set” (2004).
Active and inactive are the calls of the source.

Key:
[1] = target: Ras and Rab interactor 1/Tyrosine-protein kinase ABL1 (Homo sapiens, UniProt P00519+Q13671); assay type: functional;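 also: biochemical TR-FRET dose-response test measuring inhibition of binding between Rin1 and Abl proteins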
[2] = target: T1, Polyadenylate-binding protein 1 (Homo sapiens, UniProt P11940); experiment: PABP1 MLLE–PAM2 binding inhibitor potency, dose response, biochemical, fluorescence polarization, FITC-PAM2 peptide (AID 602259); assay type: functional; details: read-out: IC50_Mean
[3] = Counterscreen for activators of the function of SWI/SNF related, matrix associated, actin dependent regulator of chromatin, subfamily a, member 2 (SMARCA2, BRM): Luminescence-based cell-based high throughput dose response assay to identify non-selective compounds using the VP16 reporter assay.; assay type: functional
[4] = target: SWI/SNF-related matrix-associated actin-dependent regulator of chromatin subfamily A member 2 (Homo sapiens, UniProt P51531); experiment: Luminescence-based cell-based high throughput dose response assay to identify activators of the function of SWI/SNF related, matrix associated, actin dependent regulator of chromatin, subfamily a, member 2 (SMARCA2, BRM).; assay type: functional
[5] = target: T1, Polyadenylate-binding protein 1; experiment: PABP1 MLLE–PAM2 interaction inhibitors, dose response, miRNA deadenylation inhibitor project, biochemical, fluorescence polarization, Cy5-PAM2 peptide, secondary (AID 602260); assay type: functional; details: read-out: IC50_Mean
[6] = target: T2, Zinc finger protein mex-5 (Caenorhabditis elegans, UniProt Q9XUB2); experiment: MEX-5/TCR-2 RNA interaction inhibitors, dose response, biochemical, C. elegans, fluorescence polarization (AID 1960)
T2 sequence (Q9XUB2 whole entry): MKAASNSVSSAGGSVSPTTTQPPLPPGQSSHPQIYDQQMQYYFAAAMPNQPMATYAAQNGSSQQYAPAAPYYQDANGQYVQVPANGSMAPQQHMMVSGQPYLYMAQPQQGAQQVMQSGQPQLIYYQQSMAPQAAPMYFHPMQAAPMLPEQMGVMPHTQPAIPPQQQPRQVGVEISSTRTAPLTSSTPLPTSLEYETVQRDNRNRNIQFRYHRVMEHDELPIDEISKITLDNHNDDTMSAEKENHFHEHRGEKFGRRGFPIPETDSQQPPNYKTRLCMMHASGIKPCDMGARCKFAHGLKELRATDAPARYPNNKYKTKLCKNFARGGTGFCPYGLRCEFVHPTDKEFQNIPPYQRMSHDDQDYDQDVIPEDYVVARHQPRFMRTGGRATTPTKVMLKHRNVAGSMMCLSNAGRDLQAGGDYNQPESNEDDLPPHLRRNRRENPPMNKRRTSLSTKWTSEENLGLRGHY

[7] = target: T3, RNA-binding protein pos-1 (Caenorhabditis elegans, UniProt G5EF15); experiment: inhibitors of POS-1/mex-3 RNA binding, dose response, biochemical, fluorescence polarization (AID 1964);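 also: purified POS-1 fused to maltose binding protein made in E. coli; potency of compounds blocking POS-1 binding to fluorescent RNA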
T3 sequence (G5EF15 whole entry): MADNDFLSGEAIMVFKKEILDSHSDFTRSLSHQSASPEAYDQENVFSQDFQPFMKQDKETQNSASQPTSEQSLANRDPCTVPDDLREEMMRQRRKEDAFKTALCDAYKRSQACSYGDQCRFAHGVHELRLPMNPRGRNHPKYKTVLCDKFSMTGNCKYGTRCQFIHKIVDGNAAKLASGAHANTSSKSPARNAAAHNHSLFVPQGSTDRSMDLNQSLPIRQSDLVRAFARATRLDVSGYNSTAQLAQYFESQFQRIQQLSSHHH

[8] = ZM109 Env clade C HIV-1 fusion inhibitors, dose response, HeLa effector, CEM target cells, luciferase, cherry-pick (AID 652058); assay type: functional, cell-based
[9] = off-target signal loss in HeLa-CEM21 co-culture – HeLa F-luc CTL cells, cherry-picked, counter-screen for HIV-1 Env fusion inhibitor project, dose response (AID 652040); assay type: functional, cell-based;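 also: potency for signal decrease marking cytotoxic or nonspecific inhibition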
[10] = inhibitors of HIV Env-driven cell fusion, dose response, cherry-pick (AID 652057); assay type: functional, cell-based
[11] = CEM21 lymphoblast cell cytotoxicity, dose response, cytotoxicity control for viral fusion inhibitor project, CellTiter-Glo luminescence, cherry-picked (AID 652042); assay type: functional, cell-based;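 also: potency for signal decrease meaning cytotoxicity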
[12] = inhibitors of clade B AD8 Env fusion, dose response, cell-based, cherry-pick (AID 652062); assay type: functional;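 also: luciferase signal from cell-cell fusion driven by HIV-1 clade B AD8 Env; potency is for inhibitors of fusion seen as a drop in luminescence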
[13] = target: T4, Apoptotic protease-activating factor 1 (Homo sapiens, UniProt O14727); assay type: functional
T4 sequence (O14727 whole entry): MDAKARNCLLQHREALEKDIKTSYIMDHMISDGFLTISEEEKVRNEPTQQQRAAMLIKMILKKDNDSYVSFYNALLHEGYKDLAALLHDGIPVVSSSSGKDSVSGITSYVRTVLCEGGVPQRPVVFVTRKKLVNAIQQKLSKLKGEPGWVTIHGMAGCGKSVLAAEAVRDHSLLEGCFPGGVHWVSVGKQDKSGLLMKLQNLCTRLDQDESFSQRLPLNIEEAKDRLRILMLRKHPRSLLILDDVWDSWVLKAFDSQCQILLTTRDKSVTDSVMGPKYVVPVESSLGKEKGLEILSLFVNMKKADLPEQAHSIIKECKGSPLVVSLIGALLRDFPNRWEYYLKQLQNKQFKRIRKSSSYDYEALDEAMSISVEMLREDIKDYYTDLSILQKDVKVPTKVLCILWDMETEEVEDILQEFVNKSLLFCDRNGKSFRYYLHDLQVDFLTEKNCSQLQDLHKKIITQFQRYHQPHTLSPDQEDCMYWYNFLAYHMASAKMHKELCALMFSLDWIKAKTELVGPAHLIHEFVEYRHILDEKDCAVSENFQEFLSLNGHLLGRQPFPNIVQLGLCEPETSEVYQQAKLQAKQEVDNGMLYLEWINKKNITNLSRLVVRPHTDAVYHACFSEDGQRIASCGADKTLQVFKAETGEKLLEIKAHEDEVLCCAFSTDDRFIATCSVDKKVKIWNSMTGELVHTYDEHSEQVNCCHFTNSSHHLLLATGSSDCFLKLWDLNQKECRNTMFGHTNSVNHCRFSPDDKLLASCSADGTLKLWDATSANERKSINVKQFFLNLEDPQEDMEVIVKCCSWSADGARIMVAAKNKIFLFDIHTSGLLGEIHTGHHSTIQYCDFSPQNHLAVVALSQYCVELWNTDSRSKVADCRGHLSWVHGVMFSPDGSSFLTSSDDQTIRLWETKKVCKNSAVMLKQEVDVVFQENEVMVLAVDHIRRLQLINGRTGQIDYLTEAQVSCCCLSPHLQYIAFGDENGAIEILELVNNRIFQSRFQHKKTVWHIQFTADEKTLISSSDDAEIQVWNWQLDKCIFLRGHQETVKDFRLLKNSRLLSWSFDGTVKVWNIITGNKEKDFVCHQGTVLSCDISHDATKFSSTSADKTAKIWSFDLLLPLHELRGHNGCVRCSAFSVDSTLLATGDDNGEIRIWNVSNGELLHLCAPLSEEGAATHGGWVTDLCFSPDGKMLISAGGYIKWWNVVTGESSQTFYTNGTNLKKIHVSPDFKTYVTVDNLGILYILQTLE

INS1 = experiment: beta cell apoptosis inhibitors, cytokine rescue, dose response, luminescence, retest (AID 449756); assay type: functional, cell-based; details: Rattus norvegicus;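 also: cell death triggered by IL-1 beta plus TNF-alpha plus IFN-gamma mixture; protective hits raise ATP signal compared with cytokine alone wells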
Insulin-degrading enzyme [14] = target: T5, Insulin-degrading enzyme (Homo sapiens, UniProt P14735); experiment: activators of endogenous IDE in HEK cells, dose response, cell-based, fluorescence polarization (AID 588439); assay type: functional
T5 sequence (P14735 whole entry): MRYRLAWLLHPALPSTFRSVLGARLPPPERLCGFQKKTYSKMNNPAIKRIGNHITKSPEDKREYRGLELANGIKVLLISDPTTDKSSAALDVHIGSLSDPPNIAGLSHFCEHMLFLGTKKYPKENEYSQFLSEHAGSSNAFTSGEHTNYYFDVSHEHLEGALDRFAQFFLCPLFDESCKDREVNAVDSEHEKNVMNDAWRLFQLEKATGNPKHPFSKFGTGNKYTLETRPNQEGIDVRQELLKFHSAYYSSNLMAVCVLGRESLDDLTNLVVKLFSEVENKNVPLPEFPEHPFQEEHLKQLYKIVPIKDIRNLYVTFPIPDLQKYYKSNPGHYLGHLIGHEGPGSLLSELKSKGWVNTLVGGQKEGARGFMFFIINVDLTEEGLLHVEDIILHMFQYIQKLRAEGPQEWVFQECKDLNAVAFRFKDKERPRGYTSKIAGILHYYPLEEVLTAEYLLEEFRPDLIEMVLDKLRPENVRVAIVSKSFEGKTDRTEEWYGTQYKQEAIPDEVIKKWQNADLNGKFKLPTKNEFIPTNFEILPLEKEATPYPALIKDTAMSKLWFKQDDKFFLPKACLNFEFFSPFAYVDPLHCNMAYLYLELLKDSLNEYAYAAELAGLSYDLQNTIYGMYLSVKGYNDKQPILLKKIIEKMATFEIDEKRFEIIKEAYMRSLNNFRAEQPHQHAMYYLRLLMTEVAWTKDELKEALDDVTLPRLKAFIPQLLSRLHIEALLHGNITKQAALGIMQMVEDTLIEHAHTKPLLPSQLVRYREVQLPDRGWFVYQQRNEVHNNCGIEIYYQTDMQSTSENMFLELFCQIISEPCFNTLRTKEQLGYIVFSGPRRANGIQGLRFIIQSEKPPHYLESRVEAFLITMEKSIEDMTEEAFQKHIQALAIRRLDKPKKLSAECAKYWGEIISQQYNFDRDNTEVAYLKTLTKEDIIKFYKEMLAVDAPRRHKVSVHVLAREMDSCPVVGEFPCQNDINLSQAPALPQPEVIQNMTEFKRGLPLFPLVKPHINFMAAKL

HEK293 [15] = experiment: HEK cell cytotoxicity by LDH release, dose response, cytotoxicity control for IDE activator project, fluorescence, HEK cells (AID 588440); assay type: functional, cell-based; details: Homo sapiens;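 also: cytotoxicity by LDH release measuring loss of membrane integrity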
Insulin-degrading enzyme [16] = target: T5, Insulin-degrading enzyme; experiment: activators of recombinant IDE enzyme, dose response, counter-screen for IDE activator project, biochemical, fluorescence polarization (AID 588681)
HEK293 [17] = experiment: optical interference in Abeta FP readout, dose response, artefact control for IDE activator project, biochemical, fluorescence polarization (AID 588442); assay type: functional, cell-based; details: Homo sapiens
Melanocortin receptor 4 = Melanocortin receptor 4 (Homo sapiens, UniProt P32245); assay type: functional, cell-based;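 also: Cell-based assay with luminescence read-out, confirmatory dose-response testing for agonist activity of biased ligands at MC4R; human U2OS cells with tagged receptor and beta-arrestin; potency of agonists that increase receptor coupling to beta-arrestin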
[18] = P. falciparum Dd2 growth inhibitors, dose response, SYBR Green, cherry-picked samples (AID 1159567); assay type: functional, cell-based
[19] = NIH:OVCAR-3 ovarian cancer cell cytotoxicity, dose response, PAX8 inhibitor project, plate reader, dry powder samples (AID 743044); assay type: functional, cell-based
Paired box protein Pax-8 = Paired box protein Pax-8 (Homo sapiens, UniProt Q06710); experiment: inhibitors of PAX8-driven TPO luciferase reporter, dose response, RMG-I cells, cherry-pick (AID 687027); assay type: functional, cell-based;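 also: luciferase reporter driven by Pax8 target thyroperoxidase promoter measured by SteadyGlo luminescence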
[20] = IGROV1 ovarian cancer cell cytotoxicity, dose response, PAX8 inhibitor project, plate reader, dry powder samples (AID 743043); assay type: functional, cell-based; details: IGROV-1
[21] = HepG2 cell cytotoxicity, dose response, cytotoxicity control, cherry-picked samples (AID 1159577); assay type: functional, cell-based
[22] = target: Aryl hydrocarbon receptor (Homo sapiens, UniProt P35869); details: Potency;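 also: confirmatory quantitative high-throughput screen measuring activation of the AhR signaling pathway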
SN12K1 = experiment: cells; assay type: functional; details: Homo sapiens
P388/ADR = experiment: cells; assay type: functional; details: Mus musculus
P388 = experiment: cells; assay type: functional; details: Mus musculus

Chain of Aryl hydrocarbon receptor (P35869 whole entry): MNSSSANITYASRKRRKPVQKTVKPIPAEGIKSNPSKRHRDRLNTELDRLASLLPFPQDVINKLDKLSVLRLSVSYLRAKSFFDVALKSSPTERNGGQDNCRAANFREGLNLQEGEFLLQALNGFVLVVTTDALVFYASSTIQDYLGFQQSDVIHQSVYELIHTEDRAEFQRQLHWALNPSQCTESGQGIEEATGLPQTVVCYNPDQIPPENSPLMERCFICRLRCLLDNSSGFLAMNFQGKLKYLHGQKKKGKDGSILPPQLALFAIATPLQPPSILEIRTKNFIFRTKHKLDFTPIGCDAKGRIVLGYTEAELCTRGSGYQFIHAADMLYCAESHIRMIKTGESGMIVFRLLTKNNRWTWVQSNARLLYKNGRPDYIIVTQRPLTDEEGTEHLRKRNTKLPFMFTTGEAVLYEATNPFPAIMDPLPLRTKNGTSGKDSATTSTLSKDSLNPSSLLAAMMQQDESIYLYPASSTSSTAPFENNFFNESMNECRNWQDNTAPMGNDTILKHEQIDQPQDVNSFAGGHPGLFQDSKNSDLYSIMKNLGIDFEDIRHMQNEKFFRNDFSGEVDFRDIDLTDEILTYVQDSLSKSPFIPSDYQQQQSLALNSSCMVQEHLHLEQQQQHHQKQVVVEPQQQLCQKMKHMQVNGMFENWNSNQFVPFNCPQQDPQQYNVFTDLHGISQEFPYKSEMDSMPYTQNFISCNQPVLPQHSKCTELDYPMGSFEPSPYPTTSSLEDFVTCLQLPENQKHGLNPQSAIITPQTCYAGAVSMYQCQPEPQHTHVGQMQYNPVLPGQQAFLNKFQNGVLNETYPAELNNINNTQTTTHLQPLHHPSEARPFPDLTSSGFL
T1 sequence (P11940 whole entry): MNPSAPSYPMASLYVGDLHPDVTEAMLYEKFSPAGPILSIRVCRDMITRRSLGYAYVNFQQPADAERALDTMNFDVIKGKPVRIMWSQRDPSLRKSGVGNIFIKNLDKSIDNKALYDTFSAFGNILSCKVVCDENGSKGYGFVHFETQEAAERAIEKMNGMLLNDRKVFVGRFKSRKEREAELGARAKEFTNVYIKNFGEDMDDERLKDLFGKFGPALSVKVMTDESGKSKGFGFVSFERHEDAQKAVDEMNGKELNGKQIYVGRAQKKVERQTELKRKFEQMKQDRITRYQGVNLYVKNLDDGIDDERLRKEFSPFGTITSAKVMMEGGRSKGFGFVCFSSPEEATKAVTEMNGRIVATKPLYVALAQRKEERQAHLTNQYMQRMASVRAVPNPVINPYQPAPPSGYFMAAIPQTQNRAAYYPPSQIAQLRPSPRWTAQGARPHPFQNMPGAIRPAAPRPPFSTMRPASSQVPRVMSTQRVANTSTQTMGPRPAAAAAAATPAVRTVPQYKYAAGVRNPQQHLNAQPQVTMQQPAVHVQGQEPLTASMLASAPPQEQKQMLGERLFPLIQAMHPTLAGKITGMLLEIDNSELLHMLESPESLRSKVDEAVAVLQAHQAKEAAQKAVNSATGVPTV
Chain of Paired box protein Pax-8 (Q06710 whole entry): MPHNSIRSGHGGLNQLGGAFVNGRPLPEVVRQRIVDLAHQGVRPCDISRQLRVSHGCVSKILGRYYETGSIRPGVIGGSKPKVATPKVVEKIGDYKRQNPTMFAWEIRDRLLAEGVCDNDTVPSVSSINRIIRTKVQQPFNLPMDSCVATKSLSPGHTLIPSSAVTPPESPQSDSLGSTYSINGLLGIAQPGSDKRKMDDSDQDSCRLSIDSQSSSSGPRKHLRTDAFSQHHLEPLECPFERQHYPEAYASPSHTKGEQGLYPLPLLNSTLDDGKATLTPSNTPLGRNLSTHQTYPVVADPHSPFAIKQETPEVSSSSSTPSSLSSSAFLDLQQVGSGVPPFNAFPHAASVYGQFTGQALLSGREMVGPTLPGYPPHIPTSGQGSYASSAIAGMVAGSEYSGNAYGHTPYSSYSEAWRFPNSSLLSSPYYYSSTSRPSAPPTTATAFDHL
Chain of Melanocortin receptor 4 (P32245 whole entry): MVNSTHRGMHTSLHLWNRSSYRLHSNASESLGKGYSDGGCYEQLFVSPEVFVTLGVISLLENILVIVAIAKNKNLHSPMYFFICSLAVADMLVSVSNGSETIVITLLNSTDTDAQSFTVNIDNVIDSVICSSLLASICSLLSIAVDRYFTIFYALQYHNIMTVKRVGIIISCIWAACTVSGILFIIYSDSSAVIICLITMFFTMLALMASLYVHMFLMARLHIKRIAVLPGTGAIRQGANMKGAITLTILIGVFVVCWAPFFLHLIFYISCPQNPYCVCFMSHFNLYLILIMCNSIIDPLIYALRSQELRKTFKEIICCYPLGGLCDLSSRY
Chain of Ras and Rab interactor 1/Tyrosine-protein kinase ABL1 (P00519 whole entry): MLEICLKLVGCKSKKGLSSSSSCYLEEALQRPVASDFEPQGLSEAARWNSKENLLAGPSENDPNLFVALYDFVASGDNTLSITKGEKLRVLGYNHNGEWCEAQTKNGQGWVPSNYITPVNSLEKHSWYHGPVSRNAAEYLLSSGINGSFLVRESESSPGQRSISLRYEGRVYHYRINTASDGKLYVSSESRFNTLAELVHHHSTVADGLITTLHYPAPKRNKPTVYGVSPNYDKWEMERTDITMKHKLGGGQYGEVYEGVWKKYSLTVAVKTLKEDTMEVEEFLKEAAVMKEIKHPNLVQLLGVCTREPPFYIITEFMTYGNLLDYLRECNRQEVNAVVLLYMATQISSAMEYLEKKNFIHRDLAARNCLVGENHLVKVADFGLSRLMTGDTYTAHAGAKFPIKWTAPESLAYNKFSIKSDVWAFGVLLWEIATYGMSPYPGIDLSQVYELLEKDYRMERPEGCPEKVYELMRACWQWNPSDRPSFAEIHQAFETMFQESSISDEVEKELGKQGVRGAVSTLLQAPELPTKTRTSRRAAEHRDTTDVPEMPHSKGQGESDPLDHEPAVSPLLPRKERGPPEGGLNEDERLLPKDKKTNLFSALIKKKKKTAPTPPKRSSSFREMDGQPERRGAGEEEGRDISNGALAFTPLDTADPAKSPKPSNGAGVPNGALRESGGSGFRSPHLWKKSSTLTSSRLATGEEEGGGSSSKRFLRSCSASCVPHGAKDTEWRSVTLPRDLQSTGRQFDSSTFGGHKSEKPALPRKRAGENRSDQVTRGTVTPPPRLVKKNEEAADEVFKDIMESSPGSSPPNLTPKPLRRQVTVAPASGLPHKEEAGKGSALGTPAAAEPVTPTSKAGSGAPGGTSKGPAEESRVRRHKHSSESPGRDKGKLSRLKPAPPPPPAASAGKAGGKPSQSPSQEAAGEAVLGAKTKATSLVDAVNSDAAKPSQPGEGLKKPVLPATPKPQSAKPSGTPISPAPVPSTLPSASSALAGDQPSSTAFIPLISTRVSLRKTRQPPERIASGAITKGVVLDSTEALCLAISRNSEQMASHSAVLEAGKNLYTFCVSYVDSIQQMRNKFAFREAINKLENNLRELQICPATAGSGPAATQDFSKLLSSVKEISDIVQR
Chain of Ras and Rab interactor 1/Tyrosine-protein kinase ABL1 (Q13671 whole entry): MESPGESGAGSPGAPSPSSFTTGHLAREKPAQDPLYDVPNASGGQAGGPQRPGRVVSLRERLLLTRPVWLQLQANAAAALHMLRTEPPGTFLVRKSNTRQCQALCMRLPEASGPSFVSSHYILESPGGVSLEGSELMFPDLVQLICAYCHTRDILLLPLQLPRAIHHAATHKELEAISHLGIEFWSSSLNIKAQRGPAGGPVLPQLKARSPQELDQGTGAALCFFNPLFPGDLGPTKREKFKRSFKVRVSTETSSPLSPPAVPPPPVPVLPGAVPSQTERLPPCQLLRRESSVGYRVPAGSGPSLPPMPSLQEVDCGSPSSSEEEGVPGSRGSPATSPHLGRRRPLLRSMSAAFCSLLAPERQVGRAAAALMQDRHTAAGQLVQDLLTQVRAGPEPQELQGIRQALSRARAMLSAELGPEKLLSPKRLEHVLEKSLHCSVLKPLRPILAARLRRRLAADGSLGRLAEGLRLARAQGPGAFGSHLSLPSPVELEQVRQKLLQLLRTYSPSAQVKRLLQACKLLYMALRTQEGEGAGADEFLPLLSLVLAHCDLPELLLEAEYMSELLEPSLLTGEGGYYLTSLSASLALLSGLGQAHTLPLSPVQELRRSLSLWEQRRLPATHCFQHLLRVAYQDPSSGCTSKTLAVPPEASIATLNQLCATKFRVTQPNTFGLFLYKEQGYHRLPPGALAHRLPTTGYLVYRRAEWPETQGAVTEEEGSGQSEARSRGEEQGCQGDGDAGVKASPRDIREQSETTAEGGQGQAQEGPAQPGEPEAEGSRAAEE

Compound: COc1cccc(CSc2nnc(CSc3nc4nc(C)cc(C)n4n3)s2)c1
- IC50 [1]: 7.8 µM (active)

Compound: CN(C)CCCN1C(=O)c2cccc3c(Br)ccc(c23)C1=O
- IC50 [2]: 29.3 µM (inactive)
- EC50 [3]: > 91.2 µM (inactive)
- EC50 [4]: > 10.1 µM (inactive)
- IC50 [5]: > 66 µM (inactive)
- EC50 [6]: 16.7 µM (active)
- EC50 [7]: 22.1 µM (active)

Compound: COc1cc(CNC(C)c2ccccc2)cc(Cl)c1OCC(=O)Nc1ccccc1 (centres undefined)
- AC50 [8]: 2.76 µM (active)
- AC50 [9]: 4.69 µM (active)
- AC50 [10]: 2.13 µM (active)
- AC50 [11]: 39 µM (active)
- AC50 [12]: 3.78 µM (active)

Compound: Oc1ccc(Br)cc1CNc1cccc2cccnc12
- IC50 [13]: 34.6 µM (active)
- AC50 (INS1): 3.24 µM (active)

Compound: Cc1ccc(N/C=C(\C#N)S(=O)(=O)c2ccccc2)cc1
- EC50 (Insulin-degrading enzyme [14]): > 54.7 µM (inactive)
- IC50 (HEK293 [15]): > 89.3 µM (inactive)
- EC50 (Insulin-degrading enzyme [16]): > 54.7 µM (inactive)
- EC50 (HEK293 [17]): > 56 µM (inactive)

Compound: CC1=C(C(=O)OCc2ccccc2)C(c2ccc(Br)cc2)NC(=O)N1CCCCCC(=O)O (centres undefined)
- EC50 (Insulin-degrading enzyme [14]): > 54.7 µM (inactive)
- IC50 (HEK293 [15]): > 89.2 µM (inactive)
- EC50 (Insulin-degrading enzyme [16]): > 54.7 µM (inactive)
- EC50 (HEK293 [17]): > 55.9 µM (inactive)

Compound: COc1ccc(-c2cc(NC(C)=O)c3ncc(-c4cccc(C(F)(F)F)c4)n3c2)c(OC)c1
- EC50 (Melanocortin receptor 4): > 89.2 µM (inactive)

Compound: CCCC#Cc1ccc([C@@H]2[C@H](CO)N3CCCCN(S(=O)(=O)Cc4ccccc4)C[C@@H]23)cc1
- AC50 [18]: 2.54 µM (active)
- AC50 [19]: 61.3 µM (active)
- AC50 (Paired box protein Pax-8): 29.2 µM (active)
- AC50 [20]: 42.6 µM (active)
- AC50 [21]: 12.4 µM (active)

Compound: C[C@@H]1CN([C@@H](C)CO)C(=O)Cc2cc(NC(=O)NC3CCCCC3)ccc2O[C@@H]1CN(C)S(=O)(=O)c1ccc(Cl)cc1
- AC50 [11]: 61.1 µM (active)

Compound: Cc1nn(C)c(Oc2ccccc2)c1/C=N/OCc1ccc(C(=O)OC(C)(C)C)cc1 [FENPYROXYMATE]
- AC50 [22]: 44.7 µM (inconclusive)

Compound: O=C1C=C2C(=CCOC2O)O1 (centres undefined) [PATULIN]
- GI50 (SN12K1): 998 nM (active)
- AC50 [22]: 12.6 µM (inconclusive)
- GI50 (P388/ADR): 318 nM (active)
- GI50 (P388): 135 nM (active)
